From ChEMBL document CHEMBL5212743, “Selectivity Literature for EUbOPEN Chemogenomics Library wave 3” (2023)

Legend:
[1] = target: Ribosomal protein S6 kinase alpha-6 (Homo sapiens) (UniProt Q9UK32); experiment: Selectivity interaction (Kinase panel (Millipore)) EUB0000153b RPS6KA6; conditions: at 10 µM
[2] = target: Rho-associated protein kinase 2 (Homo sapiens) (UniProt O75116); experiment: Selectivity interaction (Kinase panel (Millipore)) EUB0000153b ROCK2; conditions: at 10 µM
[3] = target: Ribosomal protein S6 kinase alpha-2 (Homo sapiens) (UniProt Q15349); experiment: Selectivity interaction (Kinase panel (Millipore)) EUB0000153b RPS6KA2; conditions: at 10 µM
[4] = target: T1, Serine/threonine-protein kinase Sgk1 (Homo sapiens) (UniProt O00141); experiment: Selectivity interaction (Kinase panel (Millipore)) EUB0000153b SGK1; conditions: at 10 µM
T1 sequence (whole entry): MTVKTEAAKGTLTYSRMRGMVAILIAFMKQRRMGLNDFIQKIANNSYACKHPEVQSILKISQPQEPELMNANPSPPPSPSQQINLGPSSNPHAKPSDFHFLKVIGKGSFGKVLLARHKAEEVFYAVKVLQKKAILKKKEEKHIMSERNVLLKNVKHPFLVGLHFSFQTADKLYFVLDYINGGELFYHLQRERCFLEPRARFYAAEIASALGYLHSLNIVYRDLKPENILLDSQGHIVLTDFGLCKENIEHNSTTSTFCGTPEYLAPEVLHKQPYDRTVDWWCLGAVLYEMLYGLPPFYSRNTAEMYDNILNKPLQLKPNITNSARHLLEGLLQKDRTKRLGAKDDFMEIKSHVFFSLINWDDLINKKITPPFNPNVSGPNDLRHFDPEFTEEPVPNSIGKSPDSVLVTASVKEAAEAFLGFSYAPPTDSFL

[5] = target: Tyrosine-protein kinase SYK (Homo sapiens, UniProt P43405); experiment: Selectivity interaction (Kinase panel (enzymatic assay)) EUB0000153b SYK
[6] = target: Inhibitor of nuclear factor kappa-B kinase subunit alpha (Homo sapiens, UniProt O15111); experiment: Selectivity interaction (Kinase panel (enzymatic assay)) EUB0000153b CHUK
[7] = target: cAMP-dependent protein kinase catalytic subunit PRKX (Homo sapiens) (UniProt P51817); experiment: Selectivity interaction (Kinase panel (Millipore)) EUB0000153b PRKX; conditions: at 10 µM
[8] = target: NUAK family SNF1-like kinase 1 (Homo sapiens) (UniProt O60285); experiment: Selectivity interaction (Kinase panel (Millipore)) EUB0000153b NUAK1; conditions: at 10 µM
[9] = target: Glycogen synthase kinase-3 beta (Homo sapiens, UniProt P49841); experiment: Selectivity interaction (Kinase panel (enzymatic assay)) EUB0000153b GSK3B
TGF-beta receptor type-1 = TGF-beta receptor type-1 (Homo sapiens, UniProt P36897); experiment: Selectivity interaction (Kinase panel (enzymatic assay)) EUB0000153b TGFBR1
[10] = target: RAC-alpha serine/threonine-protein kinase (Homo sapiens, UniProt P31749); experiment: Selectivity interaction (Kinase panel (enzymatic assay)) EUB0000153b AKT1
[11] = target: Vascular endothelial growth factor receptor 2 (Homo sapiens, UniProt P35968); experiment: Selectivity interaction (Kinase panel (enzymatic assay)) EUB0000153b KDR
[12] = target: Serine/threonine-protein kinase Sgk2 (Homo sapiens) (UniProt Q9HBY8); experiment: Selectivity interaction (Kinase panel (Millipore)) EUB0000153b SGK2; conditions: at 10 µM
[13] = target: Phosphatidylinositol 4,5-bisphosphate 3-kinase catalytic subunit gamma isoform (Homo sapiens, UniProt P48736); experiment: Selectivity interaction (Kinase panel (enzymatic assay)) EUB0000153b PIK3CG
[14] = target: Mitogen-activated protein kinase kinase kinase 5 (Homo sapiens, UniProt Q99683); experiment: Selectivity interaction (Kinase panel (enzymatic assay)) EUB0000153b MAP3K5
[15] = target: Mitogen-activated protein kinase kinase kinase kinase 5 (Homo sapiens) (UniProt Q9Y4K4); conditions: at 1 µM
[16] = target: Mitogen-activated protein kinase kinase kinase kinase 4 (Homo sapiens) (UniProt O95819); conditions: at 1 µM
[17] = target: Epidermal growth factor receptor (Homo sapiens, UniProt P00533); conditions: at 1 µM
[18] = target: Activin receptor type-2A (Homo sapiens) (UniProt P27037); conditions: at 1 µM
[19] = target: Sodium channel regulatory subunit beta-2 (Homo sapiens, UniProt O60939); experiment: Selectivity interaction (Enzyme and Receptor panel (MSD Pharma/Taiwan)) EUB0000753a SCN2B
[20] = target: T2, Gamma-aminobutyric acid receptor subunit alpha-1 (Homo sapiens, UniProt P14867); experiment: Selectivity interaction (GPCR panel (PDSP screen)) EUB0000739a GABRA1
T2 sequence (P14867 whole entry): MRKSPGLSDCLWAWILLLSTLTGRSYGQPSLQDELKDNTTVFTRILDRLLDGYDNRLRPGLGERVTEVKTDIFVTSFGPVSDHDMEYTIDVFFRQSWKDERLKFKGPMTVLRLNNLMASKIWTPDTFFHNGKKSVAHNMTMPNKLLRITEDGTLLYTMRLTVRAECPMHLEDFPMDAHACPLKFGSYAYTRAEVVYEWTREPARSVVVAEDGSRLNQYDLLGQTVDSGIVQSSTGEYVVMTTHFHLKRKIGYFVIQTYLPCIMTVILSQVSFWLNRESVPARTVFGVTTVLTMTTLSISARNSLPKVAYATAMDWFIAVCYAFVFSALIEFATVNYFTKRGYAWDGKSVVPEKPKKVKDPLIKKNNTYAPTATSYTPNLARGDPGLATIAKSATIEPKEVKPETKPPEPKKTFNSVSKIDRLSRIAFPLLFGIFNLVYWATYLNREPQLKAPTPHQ

[21] = target: Tyrosine-protein kinase ABL1 (Homo sapiens, UniProt P00519); conditions: at 1 µM
[22] = target: Tyrosine-protein kinase JAK2 (Homo sapiens, UniProt O60674); conditions: at 1 µM
[23] = target: T3, Alpha-1B adrenergic receptor (Homo sapiens, UniProt P35368); experiment: Selectivity interaction (GPCR panel (PDSP screen)) EUB0000739a ADRA1B
T3 sequence (P35368 whole entry): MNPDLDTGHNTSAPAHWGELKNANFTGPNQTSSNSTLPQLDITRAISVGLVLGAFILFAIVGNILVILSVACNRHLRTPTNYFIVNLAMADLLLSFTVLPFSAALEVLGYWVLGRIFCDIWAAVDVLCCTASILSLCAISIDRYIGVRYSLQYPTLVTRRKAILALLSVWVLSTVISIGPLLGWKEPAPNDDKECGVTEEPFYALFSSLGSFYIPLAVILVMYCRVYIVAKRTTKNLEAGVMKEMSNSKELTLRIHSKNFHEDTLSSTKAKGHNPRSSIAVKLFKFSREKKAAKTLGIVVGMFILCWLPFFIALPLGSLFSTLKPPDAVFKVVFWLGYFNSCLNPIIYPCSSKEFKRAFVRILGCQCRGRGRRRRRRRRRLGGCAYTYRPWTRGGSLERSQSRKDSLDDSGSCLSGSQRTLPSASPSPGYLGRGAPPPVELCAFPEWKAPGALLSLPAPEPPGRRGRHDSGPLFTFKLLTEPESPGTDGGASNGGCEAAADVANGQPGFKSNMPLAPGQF

[24] = target: T3, Alpha-1B adrenergic receptor; experiment: Selectivity interaction (Receptors and enzyme panel (internal screening at GSK)) EUB0000215b ADRA1B
[25] = target: T4, Histone-lysine N-methyltransferase EZH1 (Homo sapiens, UniProt Q92800); experiment: Selectivity interaction (Methyltransferase panel (HotSpot screen, Reaction Biology, radioisotope-based filter binding assays)) EUB0000215b EZH1
T4 sequence (Q92800 whole entry): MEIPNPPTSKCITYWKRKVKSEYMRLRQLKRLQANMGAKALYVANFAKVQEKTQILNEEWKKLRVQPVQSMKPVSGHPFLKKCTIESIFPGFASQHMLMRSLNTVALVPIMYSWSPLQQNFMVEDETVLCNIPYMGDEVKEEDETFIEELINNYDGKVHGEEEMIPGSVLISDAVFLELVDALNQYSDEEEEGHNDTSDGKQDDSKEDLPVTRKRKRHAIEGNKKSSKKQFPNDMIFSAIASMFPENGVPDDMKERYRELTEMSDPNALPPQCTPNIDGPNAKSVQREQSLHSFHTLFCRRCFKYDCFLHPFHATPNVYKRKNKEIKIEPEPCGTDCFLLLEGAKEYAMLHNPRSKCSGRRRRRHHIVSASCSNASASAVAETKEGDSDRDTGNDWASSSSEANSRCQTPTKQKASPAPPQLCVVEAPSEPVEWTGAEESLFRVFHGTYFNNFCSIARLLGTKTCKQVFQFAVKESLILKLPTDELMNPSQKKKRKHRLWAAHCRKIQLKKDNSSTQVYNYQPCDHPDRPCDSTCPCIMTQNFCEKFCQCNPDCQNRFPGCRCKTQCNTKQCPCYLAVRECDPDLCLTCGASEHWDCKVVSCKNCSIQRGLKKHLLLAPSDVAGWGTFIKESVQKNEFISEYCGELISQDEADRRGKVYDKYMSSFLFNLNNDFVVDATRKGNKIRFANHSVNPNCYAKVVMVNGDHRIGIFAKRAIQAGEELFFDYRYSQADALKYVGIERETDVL

[26] = target: High affinity nerve growth factor receptor (Homo sapiens, UniProt P04629); experiment: Selectivity interaction (KinomeScan (DiscoverX, competition-binding assay))

Sequence of NUAK family SNF1-like kinase 1 (Homo sapiens) (O60285 whole entry): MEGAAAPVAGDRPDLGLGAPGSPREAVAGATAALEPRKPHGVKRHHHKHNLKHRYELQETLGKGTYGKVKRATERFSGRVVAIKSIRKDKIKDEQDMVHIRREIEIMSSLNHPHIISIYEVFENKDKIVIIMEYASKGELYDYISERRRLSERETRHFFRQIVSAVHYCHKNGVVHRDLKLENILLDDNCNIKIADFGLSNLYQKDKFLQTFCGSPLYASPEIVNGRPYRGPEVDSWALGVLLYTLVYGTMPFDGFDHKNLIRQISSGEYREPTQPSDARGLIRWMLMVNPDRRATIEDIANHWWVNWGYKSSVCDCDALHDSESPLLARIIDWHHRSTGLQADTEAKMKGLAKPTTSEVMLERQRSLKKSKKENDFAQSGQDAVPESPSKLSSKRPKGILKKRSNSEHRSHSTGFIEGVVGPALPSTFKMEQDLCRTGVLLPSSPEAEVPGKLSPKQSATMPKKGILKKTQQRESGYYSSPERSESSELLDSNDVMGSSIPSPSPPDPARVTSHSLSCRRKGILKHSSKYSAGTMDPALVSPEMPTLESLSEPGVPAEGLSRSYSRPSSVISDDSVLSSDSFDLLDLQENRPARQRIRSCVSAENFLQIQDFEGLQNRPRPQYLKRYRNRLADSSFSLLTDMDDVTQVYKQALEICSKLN
Sequence of Phosphatidylinositol 4,5-bisphosphate 3-kinase catalytic subunit gamma isoform (P48736 whole entry, canonical isoform): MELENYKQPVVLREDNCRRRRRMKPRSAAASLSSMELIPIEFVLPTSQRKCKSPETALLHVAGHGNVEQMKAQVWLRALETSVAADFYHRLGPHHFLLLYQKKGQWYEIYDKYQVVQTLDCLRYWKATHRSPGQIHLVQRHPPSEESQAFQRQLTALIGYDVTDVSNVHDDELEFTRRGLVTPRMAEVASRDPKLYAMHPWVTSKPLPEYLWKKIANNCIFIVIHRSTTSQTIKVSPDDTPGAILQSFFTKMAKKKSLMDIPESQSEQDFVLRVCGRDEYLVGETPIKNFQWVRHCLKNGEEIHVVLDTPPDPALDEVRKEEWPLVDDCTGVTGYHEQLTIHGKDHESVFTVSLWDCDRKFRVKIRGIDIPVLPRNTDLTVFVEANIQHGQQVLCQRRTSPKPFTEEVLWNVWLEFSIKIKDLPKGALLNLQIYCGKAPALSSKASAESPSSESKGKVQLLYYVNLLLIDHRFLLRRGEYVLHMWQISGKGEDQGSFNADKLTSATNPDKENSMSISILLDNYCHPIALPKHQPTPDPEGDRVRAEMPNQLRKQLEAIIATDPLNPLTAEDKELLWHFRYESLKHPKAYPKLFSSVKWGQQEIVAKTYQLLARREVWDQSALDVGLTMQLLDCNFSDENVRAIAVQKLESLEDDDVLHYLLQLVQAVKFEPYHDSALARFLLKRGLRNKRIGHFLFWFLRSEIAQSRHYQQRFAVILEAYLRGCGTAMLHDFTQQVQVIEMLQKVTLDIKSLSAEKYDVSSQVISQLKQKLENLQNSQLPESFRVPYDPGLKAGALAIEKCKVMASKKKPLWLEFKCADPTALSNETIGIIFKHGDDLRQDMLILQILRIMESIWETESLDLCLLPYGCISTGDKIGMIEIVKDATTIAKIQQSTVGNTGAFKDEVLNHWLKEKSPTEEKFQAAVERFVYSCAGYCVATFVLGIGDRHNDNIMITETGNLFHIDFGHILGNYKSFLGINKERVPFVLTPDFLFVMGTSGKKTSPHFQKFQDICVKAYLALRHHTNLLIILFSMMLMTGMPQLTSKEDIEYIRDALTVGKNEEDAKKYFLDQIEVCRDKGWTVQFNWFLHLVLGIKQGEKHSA
Sequence of Rho-associated protein kinase 2 (Homo sapiens) (O75116 whole entry, looked up): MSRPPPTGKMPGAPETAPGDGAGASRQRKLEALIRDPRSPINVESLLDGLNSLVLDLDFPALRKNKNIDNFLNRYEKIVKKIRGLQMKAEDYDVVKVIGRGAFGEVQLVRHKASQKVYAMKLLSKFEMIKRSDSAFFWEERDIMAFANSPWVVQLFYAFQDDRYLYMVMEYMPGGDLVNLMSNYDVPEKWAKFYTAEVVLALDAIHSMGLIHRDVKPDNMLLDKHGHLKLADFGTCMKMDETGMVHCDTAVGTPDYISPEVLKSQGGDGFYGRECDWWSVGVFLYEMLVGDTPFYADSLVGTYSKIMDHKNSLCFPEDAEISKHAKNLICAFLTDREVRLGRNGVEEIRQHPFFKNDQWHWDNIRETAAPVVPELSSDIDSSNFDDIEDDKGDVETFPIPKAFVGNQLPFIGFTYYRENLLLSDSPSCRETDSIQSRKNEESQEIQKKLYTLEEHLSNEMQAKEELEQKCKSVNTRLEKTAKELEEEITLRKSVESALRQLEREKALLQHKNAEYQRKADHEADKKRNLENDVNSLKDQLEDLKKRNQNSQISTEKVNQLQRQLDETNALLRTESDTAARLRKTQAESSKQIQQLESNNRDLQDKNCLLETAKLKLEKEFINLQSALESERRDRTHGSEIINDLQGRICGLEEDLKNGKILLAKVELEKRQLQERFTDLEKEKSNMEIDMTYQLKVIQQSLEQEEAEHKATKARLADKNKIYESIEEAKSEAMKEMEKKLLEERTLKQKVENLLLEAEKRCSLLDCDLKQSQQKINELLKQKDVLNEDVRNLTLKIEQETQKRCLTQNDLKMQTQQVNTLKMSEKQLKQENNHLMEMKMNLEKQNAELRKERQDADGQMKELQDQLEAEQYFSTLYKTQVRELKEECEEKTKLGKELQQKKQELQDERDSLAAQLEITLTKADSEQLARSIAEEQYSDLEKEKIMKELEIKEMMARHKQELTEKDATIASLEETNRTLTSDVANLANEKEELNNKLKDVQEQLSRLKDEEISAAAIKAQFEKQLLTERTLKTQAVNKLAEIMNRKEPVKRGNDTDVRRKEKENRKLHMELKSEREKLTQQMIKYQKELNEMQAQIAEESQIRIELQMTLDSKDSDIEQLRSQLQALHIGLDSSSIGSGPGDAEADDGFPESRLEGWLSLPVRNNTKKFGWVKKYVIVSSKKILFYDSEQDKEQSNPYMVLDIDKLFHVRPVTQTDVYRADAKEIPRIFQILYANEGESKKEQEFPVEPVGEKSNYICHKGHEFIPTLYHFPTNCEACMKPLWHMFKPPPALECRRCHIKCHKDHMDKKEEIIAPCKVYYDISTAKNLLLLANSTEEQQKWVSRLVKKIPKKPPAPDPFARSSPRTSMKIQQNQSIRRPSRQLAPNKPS
Sequence of Vascular endothelial growth factor receptor 2 (P35968 whole entry): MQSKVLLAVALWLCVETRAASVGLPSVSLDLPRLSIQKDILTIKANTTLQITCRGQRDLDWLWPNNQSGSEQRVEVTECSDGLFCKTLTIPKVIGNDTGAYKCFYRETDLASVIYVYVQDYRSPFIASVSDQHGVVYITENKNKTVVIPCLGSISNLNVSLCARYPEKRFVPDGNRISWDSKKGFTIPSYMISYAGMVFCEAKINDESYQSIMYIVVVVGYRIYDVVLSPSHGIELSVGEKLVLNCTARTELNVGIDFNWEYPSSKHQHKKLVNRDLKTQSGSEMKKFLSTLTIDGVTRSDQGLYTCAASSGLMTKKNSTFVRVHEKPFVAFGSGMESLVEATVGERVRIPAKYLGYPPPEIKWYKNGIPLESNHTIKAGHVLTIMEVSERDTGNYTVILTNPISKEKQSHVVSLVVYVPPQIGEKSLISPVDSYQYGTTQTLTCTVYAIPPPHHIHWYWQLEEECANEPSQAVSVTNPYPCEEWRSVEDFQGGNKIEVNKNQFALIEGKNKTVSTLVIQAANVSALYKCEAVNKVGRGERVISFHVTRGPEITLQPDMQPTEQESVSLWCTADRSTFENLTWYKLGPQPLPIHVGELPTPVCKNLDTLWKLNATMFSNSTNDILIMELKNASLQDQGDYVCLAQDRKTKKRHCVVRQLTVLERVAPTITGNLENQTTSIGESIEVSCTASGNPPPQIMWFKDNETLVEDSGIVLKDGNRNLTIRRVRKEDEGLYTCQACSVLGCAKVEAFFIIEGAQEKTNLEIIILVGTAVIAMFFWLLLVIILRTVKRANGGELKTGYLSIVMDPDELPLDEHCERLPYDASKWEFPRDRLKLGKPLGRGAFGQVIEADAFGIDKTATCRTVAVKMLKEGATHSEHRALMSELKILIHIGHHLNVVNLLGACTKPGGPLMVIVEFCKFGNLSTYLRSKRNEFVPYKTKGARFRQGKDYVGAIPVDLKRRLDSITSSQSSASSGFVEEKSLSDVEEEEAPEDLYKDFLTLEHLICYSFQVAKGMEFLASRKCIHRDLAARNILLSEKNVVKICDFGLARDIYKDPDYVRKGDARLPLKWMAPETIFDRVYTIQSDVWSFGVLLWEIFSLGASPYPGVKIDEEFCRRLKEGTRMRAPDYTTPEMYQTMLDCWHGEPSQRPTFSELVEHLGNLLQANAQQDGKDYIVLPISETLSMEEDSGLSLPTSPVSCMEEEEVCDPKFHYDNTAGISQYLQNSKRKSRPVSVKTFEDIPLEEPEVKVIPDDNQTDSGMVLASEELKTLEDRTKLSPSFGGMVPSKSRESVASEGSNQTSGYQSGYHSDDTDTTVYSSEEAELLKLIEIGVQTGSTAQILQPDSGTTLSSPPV
Sequence of Sodium channel regulatory subunit beta-2 (O60939 whole entry): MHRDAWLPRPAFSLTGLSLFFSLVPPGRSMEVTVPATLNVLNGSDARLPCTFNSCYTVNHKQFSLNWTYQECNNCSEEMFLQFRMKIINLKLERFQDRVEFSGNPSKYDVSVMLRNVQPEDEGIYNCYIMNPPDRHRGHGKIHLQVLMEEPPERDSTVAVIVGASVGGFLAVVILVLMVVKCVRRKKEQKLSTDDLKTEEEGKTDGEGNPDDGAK
Sequence of Serine/threonine-protein kinase Sgk2 (Homo sapiens) (Q9HBY8 whole entry, canonical isoform): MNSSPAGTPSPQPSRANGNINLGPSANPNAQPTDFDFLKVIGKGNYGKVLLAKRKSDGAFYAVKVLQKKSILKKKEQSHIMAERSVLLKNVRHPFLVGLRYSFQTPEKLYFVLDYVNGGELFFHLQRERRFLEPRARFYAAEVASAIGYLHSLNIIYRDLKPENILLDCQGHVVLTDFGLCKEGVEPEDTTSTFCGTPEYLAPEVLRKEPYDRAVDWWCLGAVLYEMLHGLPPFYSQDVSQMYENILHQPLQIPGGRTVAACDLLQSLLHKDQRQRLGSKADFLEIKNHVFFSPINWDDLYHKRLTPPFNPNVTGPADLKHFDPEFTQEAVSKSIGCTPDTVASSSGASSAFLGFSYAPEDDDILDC

SMILES: CNc1nc(-c2ccc3c(N)n[nH]c3c2)cc(N2C[C@@H](C(=O)NC3CCCCC3)CC[C@H]2C)n1
- % of control [1]: 12%
- % of control [2]: 17%
- % of control [3]: 14%
- % of control [4]: 13%
- IC50 [5]: > 10 µM
- IC50 [6]: > 10 µM
- % of control [7]: 4%
- % of control [8]: 16%
- IC50 [9]: > 10 µM
- IC50 (TGF-beta receptor type-1): > 10 µM
- IC50 [10]: > 10 µM
- IC50 [11]: > 10 µM
- % of control [12]: 0%
- IC50 [13]: > 10 µM
- IC50 [14]: > 10 µM

SMILES: COc1cc(-c2cn([C@H]3CCc4c(F)cccc4N(CC(F)(F)F)C3=O)nn2)ccc1-n1cnc(C)c1
- % of control [15]: 5.8%
- % of control [16]: 0%
- % of control [17]: 0%
- % of control [18]: 0%
- IC50 [19]: 1 µM

SMILES: COc1cc(-c2cn([C@H]3CCc4ccccc4N(CC(F)(F)F)C3=O)nn2)ccc1-n1ccc(C)n1
- Ki [20]: 5.07 µM
- % of control [21]: 47%
- % of control [22]: 34%
- Ki [23]: > 10 µM

SMILES: CCCc1cc(C)[nH]c(=O)c1CNC(=O)c1cc(-c2ccnc(N3CCN(C)CC3)c2)cc2c1cnn2C(C)C
- IC50 [24]: 10 µM
- IC50 [25]: 0.24 µM

SMILES: COc1ccc(COc2ccc(Cc3cnc(N)nc3N)cc2OC)cc1 [GW632580X]
- Kd [26]: < 0.1 µM
